Measured values as given in patent publication US10806785B2, “Immunomodulator compounds and methods of use” (Incyte Corporation, priority 2016, dated 2020).

molecular target: PD-1/PD-L1 (Homo sapiens (Human), UniProt Q9NZQ7); assay: PD-1/PD-L1 binding assay (HTRF)
In short: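 HTRF read-out (665/620 nm) after 60 min at 25 °C with 1 nM Eu anti-human IgG and 20 nM APC anti-His. Beforehand, inhibitors were preincubated 40 min with Fc-PD-1 (25-167, […] as listed) and His-PD-L1 (19-238, 10 nM) in PBS pH 7.4 with Tween-20, BSA, 1% DMSO; IC50 from log-concentration curve.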

Chain of PD-1/PD-L1 (Q9NZQ7 19-238): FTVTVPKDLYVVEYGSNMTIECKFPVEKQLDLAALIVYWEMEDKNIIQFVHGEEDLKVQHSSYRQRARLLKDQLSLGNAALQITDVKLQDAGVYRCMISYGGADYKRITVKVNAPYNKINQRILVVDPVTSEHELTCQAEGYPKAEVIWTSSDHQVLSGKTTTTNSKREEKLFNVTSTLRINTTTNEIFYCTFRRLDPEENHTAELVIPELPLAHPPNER

IC50, ≤ 10 nM:
C[C@@H](O)CN1CCc2c(nc(C(=O)Nc3cccc(-c4cccc(NC(=O)c5nc6c(n5C)CCN(C)C6)c4C#N)c3Cl)n2C)C1 [Example 40, (R)—N-(2-chloro-2′-cyano-3′-(1,5-dimethyl-4,5,6,7-tetrahydro-1H-imidazo[4,5-c]pyridine-2-carboxamido)biphenyl-3-yl)-5-(2-hydroxypropyl)-1-methyl-4,5,6,7-tetrahydro-1H-imidazo[4,5-c]pyridine-2-carboxamide]
Cn1c(C(=O)Nc2cccc(-c3cccc(NC(=O)c4nc5c(n4C)CCN(C4CCC(O)CC4)C5)c3Cl)c2Cl)nc2c1CCN(CC[C@H]1CC[C@H](C(=O)O)CC1)C2 (stereo partly drawn) [146 (compound 146-1), trans-4-(2-(2-((2,2′-dichloro-3′-(5-(4-hydroxycyclohexyl)-1-methyl-4,5,6,7-tetrahydro-1H-imidazo[4,5-c]pyridine-2-carboxamido)-[1,1′-biphenyl]-3-yl)carbamoyl)-1-methyl-1,4,6,7-tetrahydro-5H-imidazo[4,5-c]pyridin-5-yl)ethyl)cyclohexane-1-carboxylic acid]
Cn1c(C(=O)Nc2cccc(-c3cccc(NC(=O)c4nc5c(n4C)CCN(C4CCOCC4)C5)c3C#N)c2Cl)nc2c1CCN(CC[C@H]1CC[C@H](C(=O)O)CC1)C2 [Compound 153, trans-4-(2-(2-((2-chloro-2′-cyano-3′-(1-methyl-5-(tetrahydro-2H-pyran-4-yl)-4,5,6,7-tetrahydro-1H-imidazo[4,5-c]pyridine-2-carboxamido)-[1,1′-biphenyl]-3-yl)carbamoyl)-1-methyl-1,4,6,7-tetrahydro-5H-imidazo[4,5-c]pyridin-5-yl)ethyl)cyclohexane-1-carboxylic acid]
Cn1c(C(=O)Nc2cccc(-c3cccc(NC(=O)c4nc5c(n4C)CCN(C[C@H]4CC[C@@H](C(=O)O)CC4)C5)c3Cl)c2Cl)nc2c1CCNC2 [Example 68, cis-4-((2-((2,2′-dichloro-3′-(1-methyl-4,5,6,7-tetrahydro-1H-imidazo[4,5-c]pyridine-2-carboxamido)-[1,1′-biphenyl]-3-yl)carbamoyl)-1-methyl-1,4,6,7-tetrahydro-5H-imidazo[4,5-c]pyridin-5-yl)methyl)cyclohexane-1-carboxylic acid]
Cn1c(C(=O)Nc2cccc(-c3cccc(NC(=O)c4nc5c(n4C)CCN(C4CCCC4)C5)c3Cl)c2Cl)nc2c1CCN(CC[C@H]1CC[C@H](C(=O)O)CC1)C2 [Example 90, trans-4-(2-(2-((2,2′-dichloro-3′-(5-cyclopentyl-1-methyl-4,5,6,7-tetrahydro-1H-imidazo[4,5-c]pyridine-2-carboxamido)-[1,1′-biphenyl]-3-yl)carbamoyl)-1-methyl-1,4,6,7-tetrahydro-5H-imidazo[4,5-c]pyridin-5-yl)ethyl)cyclohexane-1-carboxylic acid]
Cc1c(-c2nc3c(s2)CN(C(=O)CN(C)C(C)C)C3)cccc1-c1cccc(NC(=O)c2nc3c(n2C)CCN(C[C@H]2CC[C@H](C(=O)O)CC2)C3)c1Cl [Compound 158, trans-4-((2-(2-chloro-3′-(5-(2-(isopropyl(methyl)amino)acetyl)-5,6-dihydro-4H-pyrrolo[3,4-d]thiazol-2-yl)-2′-methylbiphenyl-3-ylcarbamoyl)-1-methyl-6,7-dihydro-1H-imidazo[4,5-c]pyridin-5(4H)-yl)methyl)cyclohexane-1-carboxylic acid]
CC(C)N1CCc2c(nc(C(=O)Nc3cccc(-c4cccc(NC(=O)c5nc6c(n5C)CCN(CC57CCC(C(=O)O)(CC5)C7)C6)c4Cl)c3Cl)n2C)C1 [Compound 177, 4-((2-(2,2′-dichloro-3′-(5-isopropyl-1-methyl-4,5,6,7-tetrahydro-1H-imidazo[4,5-c]pyridine-2-carboxamido)biphenyl-3-ylcarbamoyl)-1-methyl-6,7-dihydro-1H-imidazo[4,5-c]pyridin-5(4H)-yl)methyl)bicyclo[2.2.1]heptane-1-carboxylic acid]
CCC1(C(=O)O)CCC(N2CCc3c(nc(C(=O)Nc4cccc(-c5cccc(NC(=O)c6nc7c(n6C)CCN(C)C7)c5C)c4Cl)n3C)C2)CC1 (stereo not drawn) [Example 121, 4-(2-((2-chloro-3′-(1,5-dimethyl-4,5,6,7-tetrahydro-1H-imidazo[4,5-c]pyridine-2-carboxamido)-2′-methyl-[1,1′-biphenyl]-3-yl)carbamoyl)-1-methyl-1,4,6,7-tetrahydro-5H-imidazo[4,5-c]pyridin-5-yl)-1-ethylcyclohexane-1-carboxylic acid]
Cc1c(-c2nc3c(o2)CN(C(=O)CN2CC[C@](C)(C(=O)O)C2)C3)cccc1-c1cccc(NC(=O)c2nc3c(n2C)CCN(C)C3)c1Cl [Compound 163, (S)-1-(2-(2-(2′-chloro-3′-(1,5-dimethyl-4,5,6,7-tetrahydro-1H-imidazo[4,5-c]pyridine-2-carboxamido)-2-methyl-[1,1′-biphenyl]-3-yl)-4,6-dihydro-5H-pyrrolo[3,4-d]oxazol-5-yl)-2-oxoethyl)-3-methylpyrrolidine-3-carboxylic acid]
Cc1c(NC(=O)c2nc3c(n2C)CCN(C2CCN(S(C)(=O)=O)CC2)C3)cccc1-c1cccc(NC(=O)c2nc3c(n2C)CCN(C)C3)c1Cl [Example 28, N-(2-chloro-2′-methyl-3′-(1-methyl-5-(1-(methylsulfonyl)piperidin-4-yl)-4,5,6,7-tetrahydro-1H-imidazo[4,5-c]pyridine-2-carboxamido)biphenyl-3-yl)-1,5-dimethyl-4,5,6,7-tetrahydro-1H-imidazo[4,5-c]pyridine-2-carboxamide]
CN1CCc2c(nc(C(=O)Nc3cccc(-c4cccc(NC(=O)c5nc6c(n5C)CCN(CCc5ccc(C(=O)O)cc5)C6)c4Cl)c3Cl)n2C)C1 [Example 78, 4-(2-(2-((2,2′-dichloro-3′-(1,5-dimethyl-4,5,6,7-tetrahydro-1H-imidazo[4,5-c]pyridine-2-carboxamido)-[1,1′-biphenyl]-3-yl)carbamoyl)-1-methyl-1,4,6,7-tetrahydro-5H-imidazo[4,5-c]pyridin-5-yl)ethyl)benzoic acid]
Cn1c(C(=O)Nc2cccc(-c3cccc(-c4nc5c(o4)CN(C(=O)CN4CC(O)C4)C5)c3Cl)c2Cl)nc2c1CCN(CCC1CCC(C(=O)O)CC1)C2 (stereo not drawn) [Compound 170, 4-(2-(2-(2,2′-dichloro-3′-(5-(2-(3-hydroxyazetidin-1-yl)acetyl)-5,6-dihydro-4H-pyrrolo[3,4-d]oxazol-2-yl)biphenyl-3-ylcarbamoyl)-1-methyl-6,7-dihydro-1H-imidazo[4,5-c]pyridin-5(4H)-yl)ethyl)cyclohexane-1-carboxylic acid]
Cc1c(NC(=O)c2nc3c(n2C)CCN(C(C)C)C3)cccc1-c1cccc(NC(=O)c2nc3c(n2C)CCN(CC[C@H]2CC[C@H](C(=O)O)CC2)C3)c1Cl [Example 129, trans-4-(2-(2-((2-chloro-3′-(5-isopropyl-1-methyl-4,5,6,7-tetrahydro-1H-imidazo[4,5-c]pyridine-2-carboxamido)-2′-methyl-[1,1′-biphenyl]-3-yl)carbamoyl)-1-methyl-1,4,6,7-tetrahydro-5H-imidazo[4,5-c]pyridin-5-yl)ethyl)cyclohexane-1-carboxylic acid]
C[C@H](O)CN1CCc2c(nc(C(=O)Nc3cccc(-c4cccc(NC(=O)c5nc6c(n5C)CCN(C)C6)c4C#N)c3Cl)n2C)C1 [Example 39, (S)—N-(2-chloro-2′-cyano-3′-(1,5-dimethyl-4,5,6,7-tetrahydro-1H-imidazo[4,5-c]pyridine-2-carboxamido)biphenyl-3-yl)-5-(2-hydroxypropyl)-1-methyl-4,5,6,7-tetrahydro-1H-imidazo[4,5-c]pyridine-2-carboxamide]
CCN1CCc2c(nc(C(=O)Nc3cccc(-c4cccc(NC(=O)c5nc6c(n5C)CCN(C[C@H]5CC[C@H](C(=O)O)CC5)C6)c4Cl)c3Cl)n2C)C1 [Example 62, trans-4-((2-(2,2′-dichloro-3′-(5-ethyl-1-methyl-4,5,6,7-tetrahydro-1H-imidazo[4,5-c]pyridine-2-carboxamido)biphenyl-3-ylcarbamoyl)-1-methyl-6,7-dihydro-1H-imidazo[4,5-c]pyridin-5(4H)-yl)methyl)cyclohexane-1-carboxylic acid]
Cc1c(NC(=O)c2nc3c(n2C)CCN(C[C@H](C)O)C3)cccc1-c1cccc(NC(=O)c2nc3c(n2C)CCNC3)c1Cl [Example 41, (S)—N-(2′-chloro-2-methyl-3′-(1-methyl-4,5,6,7-tetrahydro-1H-imidazo[4,5-c]pyridine-2-carboxamido)-[1,1′-biphenyl]-3-yl)-5-(2-hydroxypropyl)-1-methyl-4,5,6,7-tetrahydro-1H-imidazo[4,5-c]pyridine-2-carboxamide]
CN1CCc2c(nc(C(=O)Nc3cccc(-c4cccc(NC(=O)c5nc6c(n5C)CCN(C[C@H]5CC[C@H](C(=O)O)CC5)C6)c4Cl)c3Cl)n2C)C1 [Example 60, trans-4-((2-(2,2′-dichloro-3′-(1,5-dimethyl-4,5,6,7-tetrahydro-1H-imidazo[4,5-c]pyridine-2-carboxamido)biphenyl-3-ylcarbamoyl)-1-methyl-6,7-dihydro-1H-imidazo[4,5-c]pyridin-5(4H)-yl)methyl)cyclohexane-1-carboxylic acid]
Cc1c(NC(=O)c2nc3c(n2C)CCN(CC(=O)O)C3)cccc1-c1cccc(NC(=O)c2nc3c(n2C)CCN(C)C3)c1Cl [Example 33, 2-(2-(2′-chloro-3′-(1,5-dimethyl-4,5,6,7-tetrahydro-1H-imidazo[4,5-c]pyridine-2-carboxamido)-2-methylbiphenyl-3-ylcarbamoyl)-1-methyl-6,7-dihydro-1H-imidazo[4,5-c]pyridin-5(4H)-yl)acetic Acid]
